Measured values: article PMC8070447, “Facile Synthesis and In Vitro Activity of N-Substituted 1,2-Benzisothiazol-3(2H)-ones against Dengue Virus NS2BNS3 Protease” (Pathogens, 2021)
“Also recorded” adds a separate entry of the source. Read-outs that look alike come from different tables or passages of the source.

Columns and labels:
[1] = molecular target: recombinant DENV2 NS2BNS3 protease (Dengue virus type 2, UniProt P29990); assay: DENV2 NS2BNS3 protease inhibition assay (fluorogenic Bz-Nle-Lys-Arg-Arg-AMC substrate); assay type: biochemical; conditions: for inhibition at 50 µM: single dose 50 μM BIT, 100 nM protease
Method: The DENV NS2BNS3 activity inhibition assays were conducted in a 96-well plate containing 100 μL total reaction mixture. […] The reaction, in triplicates, was initiated by the addition of 100 nM DENV2 NS2B-NS3, and the release of fluorogenic AMC was measured at 60 s intervals using a spectrofluorometer for a maximum reaction time of 30 min. A solvent (DMSO) control was run for each assay plate by measuring the activity of DENV NS2BNS3 in the absence of BITs (DMSO control). The effect of background fluorescence was measured by preparing a calibration curve, which in turn was obtained by spiking known concentrations of free AMC in the same volume of the reaction mixtures containing the buffer, enzyme and compounds, and comparing the slope of this curve with that obtained using free AMC concentrations in reaction mixtures containing the buffer, enzyme, no compound and no substrate. The percentage of inhibition was calculated using the measurement of the initial rates of reaction in the presence (vexp) , or absence (vpro) of BIT according to the following formula: Inhibition (%)= 100−(vexp/vpro×100).
For the dose–response experiments, the assays were conducted as described above in the presence of threefold serial dilutions of BITs, ranging from 0.076–500 μM concentrations in DMSO. The final concentration of DMSO in each reaction mixture was less than 5%. IC50 values were obtained by plotting the residual activity of the DENV protease vs. log of the concentration of BITs by using GraphPad Prism v.7 software (San Diego, CA USA). For the positive control, aprotinin was used in a 5 μM concentration. All experiments were conducted in triplicates.
The synthesised BITs were tested for their inhibitory activity against the DENV2 NS2B/NS3 protease assay using the previously reported 96-well plate method. […] A reduction in the cleavage of the […] (AMC) measured in terms of the reduction of fluorescence was deemed to show inhibition of the protease and is reported as a percentage inhibition compared with the solvents’ control reaction. […] Aprotinine was used as the positive control, as described previously.
A threefold serial dilution of the selected BITs, ranging from 150 μM to about 200 nM, were screened in triplicate experiments, as described above. The kinetic data were obtained and the protease’s residual activities in the presence of the tested BITs were inserted into the dose–response model rooted in the GraphPad Prism software (version 7.0).
Figure 3 Inhibition and dose–response of DENV NS2BNS3 protease against the BITs. (A) A concentration of 50 μM BITs was incubated in the presence of 100 nM recombinant DENV2 NS2BNS3 protease and 5 µM tetrapeptide-AMC substrate in a Tris buffer at pH 9.5. The time-dependent release of fluorescent AMC tag was measured for 30 min and compared with the solvent control (−). […] Aprotinine (5 µM) was used as a positive control. Each bar represents a mean value of three replicates. […] The dashed horizontal line indicates the 50% activity level.

DENV2 [2] = assay: DENV replication assay, viral RNA in supernatant by RT-qPCR; assay type: cell-based, DENV2 in Vero cells; conditions: 30 μM, Vero cells pre-incubated 1 h, supernatant after two days
Method: Based on the manufacturer’s manual, viral RNA was isolated from 200 µL cell culture supernatants using the Roche HP Viral Nucleic Acid Kit (Roche, Mannheim, Germany). Relative viral genome copy numbers were determined using 5 µL of the eluted RNA and RT-qPCR using the LightMix® Modular Dengue kit (TIB MOLBIOL, Germany) in combination with the LightCycler RNA Process Control Kit (Roche, Mannheim, Germany). All reactions were performed in triplicates on Roche LightCycler96 or Roche LightCycler480 II qPCR machines (Roche, Mannheim, Germany). The relative RNA concentration was determined using an RNA standard curve and the respective cycler software. The quality of the RT-qPCRs was ensured by following the Minimum Information for Publication of Quantitative […] Experiments guidelines, i.e., the recursion coefficient of the relative standard curve (r^2) was >0.95, and the triplicate assays with a standard deviation of >0.5 were excluded from the analyses. The resulting genome copy numbers were expressed as genome copies per millilitre of the cell culture supernatants. The statistical significance of the reduction in viral titres was calculated using Student’s t-test by comparing the viral load of a single compound with the DMSO control.
The BITs were tested for cytotoxicity in the Vero cells before their evaluation in cell culture assays (Figure S1). […] The BITs showing weaker DENV2 NS2BNS3 protease activity in the biochemical assay were excluded in the in vitro evaluations. […] All infections were performed in triplicate. After two days, the cellular supernatants were collected and the viral RNAs were isolated and quantified using real-time quantitative polymerase chain reaction (RT-qPCR).
(§1) (A) Vero cells were infected with DENV2 and incubated in the presence of the compounds. After incubation, viral RNA was isolated and quantified using RT-qPCR. (B) Viral infectivity of the compounds 5m and 5n was determined using immunofluorescence (IF) staining.

DENV2 [3] = assay: Viral infectivity by immunofluorescence staining of Vero cells infected with supernatants; assay type: cell-based, DENV2 in Vero cells
Method: The inhibition of viral replication was analysed using immunofluorescence staining. Vero cells were preincubated with selected BITs at 30 μM. The cells were subsequently infected with DENV-2 (multiplicity of infection (MOI) of 0.5). Cellular supernatants were collected after 2 days, centrifuged at 2000 rpm for 5 min to remove the detached cells, and titrated on Vero cells. These cells were fixed with 4% paraformaldehyde 3 days after infection. We performed immunofluorescence staining to visualise the infected cells with monoclonal anti-DENV-2 E antibodies. Bound antibodies were detected with a Cy3-conjugated donkey anti-mouse antibody (Dianova, Hamburg, Germany) (1:500). Stained infected cells were counted using a fluorescence microscope, and the viral titres were calculated. The experiment was performed in triplicates. The statistical significance of the reduction of infected cells was calculated using Student’s t-test by comparing numbers of infected cells incubated with a compound with the DMSO control.
To further analyse whether the compounds 5m and 5n suppressed the viral gene infectivity, Vero cells were pretreated with the compounds and subsequently infected with DENV2 for two days. Cellular supernatants were uses to infect the Vero cells. After two additional days, the infected cells were visualised using immunofluorescence with anti-DENV antibodies. The stained cells were counted (Figure 5).
as §1

[4] = Vero cells pretreated, DENV2, immunofluorescence

recombinant DENV2 NS2BNS3 protease, sequence (P29990 1398-1437): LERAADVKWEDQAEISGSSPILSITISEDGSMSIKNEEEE
recombinant DENV2 NS2BNS3 protease, sequence (P29990 1476-1653): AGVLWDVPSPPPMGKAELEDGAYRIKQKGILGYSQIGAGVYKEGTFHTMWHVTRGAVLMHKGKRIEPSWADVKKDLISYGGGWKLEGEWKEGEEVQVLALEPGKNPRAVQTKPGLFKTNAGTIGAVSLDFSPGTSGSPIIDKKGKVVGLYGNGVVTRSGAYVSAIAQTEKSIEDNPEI

| Structure (SMILES) | IC50 [1] | inhibition at 50 µM [1] | suppression of DENV replication (viral RNA, RT-qPCR) (DENV2 [2]) | melting point | further results |
| --- | --- | --- | --- | --- | --- |
| Cc1cc([N+](=O)[O-])ccc1-n1sc2ccccc2c1=O [Compound 5j, 2-(2-Methyl-4-nitrophenyl)benzo[d]isothiazol-3(2H)-one] | 2.56 ± 1.03 µM | > 90% | did not show any activity against DENV2 | 135 to 138 °C |  |
| O=c1c2ccccc2sn1-c1c(Cl)cccc1Cl [Compound 5n, 2-(2,6-Dichlorophenyl)benzo[d]isothiazol-3(2H)-one] | 5.28 ± 1.89 µM | > 90% | able to suppress DENV replication at a significant level | 188 to 190 °C | reduction of viral infectivity (in words) (DENV2 [3]; [4]): about sixfold; reduction of viral infectivity (in words) (DENV2 [3]; Vero cells pretreated, DENV2, immunofluorescence, listed as 2-(2,6-dichlorophenyl)benzo[d]isothiazol-3(2H)-one): could suppress DENV replication and virus infectivity; suppression of DENV replication (viral RNA, RT-qPCR) (DENV2 [2]; listed as 2-(2,6-dichlorophenyl)benzo[d]isothiazol-3(2H)-one): could suppress DENV replication |
| O=c1c2ccccc2sn1-c1ccc(Br)cc1 [Compound 5k, 2-(4-Bromophenyl)benzo[d]isothiazol-3(2H)] | 8.24 ± 1.16 µM | 80% |  | 138 to 140 °C |  |
| COc1ccc(-n2sc3ccccc3c2=O)cc1 [Compound 5o, 2-(4-Methoxyphenyl)benzo[d]isothiazol-3(2H)-one] | 26.5 ± 4.32 µM | 58% |  |  |  |
| O=c1c2ccccc2sn1-c1ccccc1O [Compound 5l, 2-(2-Hydroxyphenyl)benzo[d]isothiazol-3(2H)-one] | 6.66 ± 2.17 µM | ≥ 90% |  | 198 to 200 °C |  |
| O=c1c2ccccc2sn1-c1ccccc1Cl [Compound 5m, 2-(2-Chlorophenyl)benzo[d]isothiazol-3(2H)-one] | 2.01 ± 0.98 µM | > 90% | able to suppress DENV replication at a significant level; also recorded: inhibited DENV replication |  | reduction of viral infectivity (DENV2 [3]): 1 log value; reduction of viral infectivity (DENV2 [3]; [4]): 1.4 orders of magnitude; reduction of viral infectivity (in words) (DENV2 [3]; [4]): inhibited DENV replication and viral infectivity; reduction of viral infectivity (in words) (DENV2 [3]; Vero cells pretreated, DENV2, immunofluorescence, listed as 2-(2-chlorophenyl)benzo[d]isothiazol-3(2H)-one): could suppress DENV replication and virus infectivity; suppression of DENV replication (viral RNA, RT-qPCR) (DENV2 [2]; listed as 2-(2-chlorophenyl)benzo[d]isothiazol-3(2H)-one): could suppress DENV replication |
| O=c1c2ccccc2sn1-c1ccccc1[N+](=O)[O-] [Compound 5h, 2-(2-Nitrophenyl)benzo[d]isothiazol-3(2H)-one] | 41.8 ± 1.17 µM | ~70% |  | 199 to 200 °C |  |
| O=c1c2ccccc2sn1-c1ccc([N+](=O)[O-])cc1 [Compound 5i, 2-(4-Nitrophenyl)benzo[d]isothiazol-3(2H)-one] |  |  |  | 126 to 129 °C |  |
| CCCCc1ccc(-n2sc3ccccc3c2=O)cc1 [Compound 5g, 2-(4-Butylphenyl)benzo[d]isothiazol-3(2H)-one] |  |  |  | 168 to 172 °C |  |
